Laboratory results: article PMC9474883, “Novel tricyclic small molecule inhibitors of Nicotinamide N-methyltransferase for the treatment of metabolic disorders” (Scientific Reports, 2022)
Where “and” joins values, the source holds several entries; their conditions need not be identical. Identical values can stand only once.

Legend:
[1] = biological target: T1, hNNMT (Homo sapiens, UniProt P40261); assay: Fluorescence based NNMT enzymatic assay (human); type: biochemical; conditions: recombinant human NNMT, fluorescence of an MNA derivative; for IC50: read-out: hNNMT IC50
T1 sequence (P40261 1-264): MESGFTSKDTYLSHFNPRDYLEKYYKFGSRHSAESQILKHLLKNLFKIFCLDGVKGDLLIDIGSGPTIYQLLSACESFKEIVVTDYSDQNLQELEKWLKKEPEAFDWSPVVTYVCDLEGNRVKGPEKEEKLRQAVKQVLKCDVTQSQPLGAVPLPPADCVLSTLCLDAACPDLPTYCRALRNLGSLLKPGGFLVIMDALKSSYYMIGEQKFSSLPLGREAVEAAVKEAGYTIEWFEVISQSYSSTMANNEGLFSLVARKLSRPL
Procedure: (§1) NNMT activity was measured by a fluorescence based assay as previously described. Briefly, Inhibitors were screened using human, mouse and monkey NNMT enzymes at different concentrations. The final assay reaction mixture contained a buffer of 100 mM Tris Hcl pH 7.5, 0.04% BSA, 2 mM Dithiothreitol and 1% DMSO. A fluorescent product 2, 7- naphthyridine was measured in a Tecan reader with excitation at 375 nm and emission at 430 nm. The IC50 values were determined by fitting the inhibition curves (percent inhibition versus inhibitor concentration) using a four parametric sigmoidal dose response in graph pad prism.

[2] = biological target: T2, endogenous NNMT in U2OS cells (Homo sapiens, UniProt P40261); assay: Cell based U2OS assay (endogenous NNMT, MNA by LC–MS/MS); conditions: 24 h treatment; for EC50: read-out: Cell based inhibition in U2OS EC50
T2 construct: endogenous in cells; host or cells: U2OS (human bone osteosarcoma)
T2 sequence (P40261 1-264): T1 sequence (P40261 1-264)
Procedure: (§2) As next steps, cellular assays using the human U2OS cell line were carried out. This assay, described in[6], measures inhibition of endogenous NNMT, without recombinant expression, by quantification of MNA via LC–MS/MS. […] EC50 values were higher by a factor of ~ 30 compared to IC50 values on the isolated recombinant hNNMT, probably reflecting low cell membrane permeability.
The cell based assay with Human bone osteosarcoma (U2OS) cell line was performed using procedures described before (6). Briefly, the cells were seeded into a 96 well cell culture plate followed by incubation for 24 h at 37 °C, 5% CO2, and 95% humidity. Cell culture media was replaced with 100 µl of medium/ inhibitor mixture at different concentrations and incubated for another 24 h. The cells were processed and […] of supernatant was transferred into 96 well plate (Costar 3364) and analyzed by LC–MS/MS. The IC50 values were determined by fitting the inhibition curves (percent inhibition versus inhibitor concentration) using a four parametric sigmoidal dose response graph pad prism.

[3] = test system: NNMT (endogenous MNA levels); assay: Determination of MNA in cells (Target engagement); type: cell-based, human; conditions: maximal MNA reduction relative to control without compound
Procedure: as §2

[4] = biological target: T3, mouse NNMT (Mus musculus, UniProt O55239); assay: Fluorescence based NNMT enzymatic assay (mouse); type: biochemical; conditions: recombinant mouse NNMT, fluorescence of an MNA derivative; read-out: mNNMT IC50
T3 sequence (O55239 1-264): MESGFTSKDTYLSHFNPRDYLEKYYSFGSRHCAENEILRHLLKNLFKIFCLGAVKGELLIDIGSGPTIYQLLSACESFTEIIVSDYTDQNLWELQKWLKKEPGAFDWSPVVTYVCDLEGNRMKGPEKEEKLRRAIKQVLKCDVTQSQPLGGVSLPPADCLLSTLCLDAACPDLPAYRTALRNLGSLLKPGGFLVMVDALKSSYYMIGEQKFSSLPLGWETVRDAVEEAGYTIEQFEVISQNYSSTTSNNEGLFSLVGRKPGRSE
Procedure: as §1

[5] = test system: NNMT; conditions: published NNMT inhibitor; cited from earlier work
[6] = biological target: T1, hNNMT; assay: Thermal shift assay; conditions: for shift in melting temperature (Tm) in presence of SAM / shift in melting temperature (Tm) in presence of SAH: hNNMT; for shift in melting temperature (Tm) in presence of SAM: 5 uM SAM, 10 uM compound; for shift in melting temperature (Tm) in presence of SAH: enzyme:SAH:compound ~ 1:5:10 (1 uM protein, 5 uM SAH, 10 uM compound)
Procedure: Thermal shift assay was performed to assess the binding of tricyclic compounds [(6) = JBSNF-000028, (8) = JBSNF-000107] to hNNMT prior to co-crystallization studies.

Row | SMILES | IC50 [1] | IC50 [4] [nM] | other results
1 | Br.CN1Cc2cc(F)cc3c2N(CCO3)C1=N [Compound (18)] | 69 ± 36 nM | > 3000 | EC50 [2]: 2500 ± 200 nM; % MNA reduction [3]: 30%
2 | N=c1sc2cccc3c2n1CCC3 [A] | 1600 nM |  | 
3 | Br.CN1Cc2c(F)c(F)cc3c2N(CC3)C1=N [Compound (9), 8,9-difluoro-2-methyl-1,2,5,6-tetrahydro-3H-pyrrolo[3,2,1-ij]quinazolin-3-imine hydrobromide] | 490 ± 40 nM | > 3000 | EC50 [2]: > 3000 nM; % MNA reduction [3]: 43%
4 | CN1Cc2c(F)c(F)cc3c2N(CCC3)C1=N [Compound (3)] | 200 nM and 190 nM | 1200 ± 750 | EC50 [2]: > 3000 nM; % MNA reduction [3]: 14%
5 | CN1Cc2cccc3c2N(CCCC3)C1=N [Compound (5)] | > 30000 nM |  | 
6 | CN1Cc2nn(C)c3c2N(CCC3)C1=N [Compound (26)] | > 30000 nM |  | 
7 | CN1Cc2cccc3c2N(CCN3C)C1=N [Compound (16)] | > 30000 nM |  | 
8 | CN1Cc2cccc3c2N(CCC3)C1=N [Compound (1)] | 130 ± 80 nM | 180 ± 10 | Cell based inhibition in U2OS EC50 [2]: active; EC50 [2]: 2500 ± 300 nM; % MNA reduction [3]: 30%
9 | CN1CCc2cccc3c2N(CC3)C1=N [Compound (27)] | > 3000 nM |  | 
10 | CN1Cc2cccc3c2N(CCS3)C1=N [Compound (13)] | 860 ± 60 nM | 200 ± 20 | EC50 [2]: > 10000 nM; % MNA reduction [3]: 40%
11 | CN1Cc2cccc3c2N(CC3)C1=O [(7), 2-methyl-1,2,5,6-tetrahydro-3H-pyrrolo[3,2,1-ij]quinazolin-3-one] |  |  | hNNMT IC50 [1]: inactive
12 | CN1Cc2cccc3cccc(c23)C1=N [(24)] | > 10000 nM |  | 
13 | Br.N=C1N(CCCc2ccccc2F)Cc2cccc3c2N1CCO3 [Compound (22)] | > 30000 nM |  | hNNMT IC50 [1]: inactive
14 | CN1Cc2cncc3c2N(CCC3)C1=N [Compound (4)] | 360 ± 100 nM | 770 ± 40 | 
15 | CN1Cc2cccc3c2N(CCN3C#N)C1=N [Compound (14)] | 250 ± 70 nM | 720 ± 70 | 
16 | CN1Cc2cc(F)cc3c2N(CCN3C)C1=N [Compound (20)] | > 3000 nM |  | 
17 | CN1Cc2cccc3ccn(c23)C1=N [Compound (23)] | > 30000 nM |  | 
18 | CN1Cc2c3c(nn2C)CCCN3C1=N [Compound (25)] | > 30000 nM |  | 
19 | CN1Cc2cccc3c2N(CCO3)C1=N [Compound (12)] | 180 ± 20 nM | 380 ± 20 | 
20 | CN1Cc2cc(F)cc3c2N(CCC3)C1=N [Compound (2)] | 59 ± 4 nM | 330 ± 130 | Cell based inhibition in U2OS EC50 [2]: active; EC50 [2]: 2200 ± 100 nM; % MNA reduction [3]: 21%
21 | CNc1ccc(C(N)=O)cn1 [Compound 28, 6-methylaminonicotinamide] |  |  | IC50 [5]: 590 nM
22 | CN1Cc2cc(F)cc3c2N(CC3)C1=N [Compound (8)] | 38 nM and 39 nM | 1100 ± 500 | EC50 [2]: 1100 ± 200 nM; % MNA reduction [3]: 30%; Tm in presence of SAH ([6]; hNNMT 1 uM, SAH 5 uM, compound 10 uM, protein with SAH alone Tm=39°C): 50 °C; Tm in presence of SAM ([6]; hNNMT 1 uM, SAM 5 uM, compound 10 uM, protein with SAM alone Tm=38°C): 41 °C; shift in melting temperature (Tm) in presence of SAM ([6]; listed as JBSFN-107): up to 3 °C; shift in melting temperature (Tm) in presence of SAM ([6]; listed as JBSNF-000107): ~ 3 °C; shift in melting temperature (Tm) in presence of SAH ([6]; listed as JBSFN-107): up to 11 °C; shift in melting temperature (Tm) in presence of SAH ([6]; listed as JBSNF-000107): ~ 10 °C
23 | CN(C)C(=O)N1CCN2C(=N)N(C)Cc3cccc1c32 [Compound (17)] | > 30000 nM |  | 
24 | CN1Cc2ccc(F)c3c2N(CC3)C1=N [Compound (11)] | > 1000 nM |  | 
25 | CC(=O)N1CCN2C(=N)N(C)Cc3cccc1c32 [Compound (15)] | > 30000 nM |  | 
26 | Br.N=C1N(CC(F)(F)F)Cc2cc(F)cc3c2N1CCO3 [Compound (21)] | > 30000 nM |  | hNNMT IC50 [1]: inactive
27 | CCn1c(=N)n2c3c(cccc31)CCC2 [B] | 180 nM |  | 
